Results: patent US9029531B2 (Agios Pharmaceuticals, Inc., priority 2012, dated 2015)

Target: T1, glutaminase (GAC) (Homo sapiens, UniProt O94925)
T1 sequence (O94925 55-598 isoform O94925-3 limits assumed): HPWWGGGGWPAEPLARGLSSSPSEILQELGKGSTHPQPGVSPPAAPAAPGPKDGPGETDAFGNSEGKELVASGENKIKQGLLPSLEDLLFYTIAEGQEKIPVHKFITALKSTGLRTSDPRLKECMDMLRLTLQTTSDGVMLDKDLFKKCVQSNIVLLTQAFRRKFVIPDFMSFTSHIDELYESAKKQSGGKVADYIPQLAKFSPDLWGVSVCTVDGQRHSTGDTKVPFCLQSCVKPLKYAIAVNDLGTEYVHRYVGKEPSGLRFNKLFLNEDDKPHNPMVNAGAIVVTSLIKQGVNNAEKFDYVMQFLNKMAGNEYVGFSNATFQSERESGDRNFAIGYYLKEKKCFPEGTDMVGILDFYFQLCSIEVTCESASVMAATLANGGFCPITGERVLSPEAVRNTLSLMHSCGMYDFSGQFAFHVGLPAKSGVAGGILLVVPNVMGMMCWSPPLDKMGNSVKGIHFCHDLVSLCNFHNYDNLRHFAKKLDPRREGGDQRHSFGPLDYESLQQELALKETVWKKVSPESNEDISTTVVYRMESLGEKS
Assay: Glutaminase coupled endpoint enzymatic assay (Example A)
Assay type: biochemical
Details: inhibition of glutaminase; assay of Example A or Example B
Procedure, shortened: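 Endpoint coupled assay: glutamate formed by GAC drives GDH NADH production, recycled by diaphorase reducing resazurin to fluorescent resorufin (Ex544/Em590) after SDS stop. Buffer pH 8.5 with phosphate; glutamine at Km; enzyme preincubated with compound 60 min at room temperature.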

IC50	Structure (SMILES)
< 100 nM	O=C(Cc1ccc(N2CC(F)(F)C2)nc1)Nc1nnc([C@H]2CCC[C@H](c3nnc(NC(=O)Cc4ccc(N5CC(F)(F)C5)nc4)s3)C2)s1 [Compound 271, N,N′-(5,5′-((1S,3S)-cyclohexane-1,3-diyl)bis(1,3,4-thiadiazole-5,2-diyl))bis(2-(6-(3,3-difluoroazetidin-1-yl)pyridin-3-yl)acetamide)]
< 100 nM	O=C(Cc1cccc(C2CCNCC2)c1)Nc1nnc([C@H]2CCC[C@H](c3nnc(NC(=O)Cc4cccc(C5CCNCC5)c4)s3)C2)s1 [Compound 272, N,N′-(5,5′-((1S,3S)-cyclohexane-1,3-diyl)bis(1,3,4-thiadiazole-5,2-diyl))bis(2-(3-(piperidin-4-yl)phenyl)acetamide)]
< 100 nM	O=C(Cc1c[nH]cn1)Nc1nnc([C@H]2CCC[C@H](c3nnc(NC(=O)Cc4c[nH]cn4)s3)C2)s1 [Compound 273, N,N′-(5,5′-((1S,3S)-cyclohexane-1,3-diyl)bis(1,3,4-thiadiazole-5,2-diyl))bis(2-(1H-imidazol-4-yl)acetamide)]
< 100 nM	Nc1nc(CC(=O)Nc2nnc([C@H]3CCC[C@H](c4nnc(NC(=O)Cc5csc(N)n5)s4)C3)s2)cs1 [Compound 274, N,N′-(5,5′-((1S,3S)-cyclohexane-1,3-diyl)bis(1,3,4-thiadiazole-5,2-diyl))bis(2-(2-aminothiazol-4-yl)acetamide)]
< 100 nM	CNc1nc(CC(=O)Nc2nnc([C@H]3CCC[C@H](c4nnc(NC(=O)Cc5csc(NC)n5)s4)C3)s2)cs1 [Compound 275, N,N′-(5,5′-((1S,3S)-cyclohexane-1,3-diyl)bis(1,3,4-thiadiazole-5,2-diyl))bis(2-(2-(methylamino)thiazol-4-yl)acetamide)]
100 to 500 nM	O=C(Cc1csc(N2CCOCC2)n1)Nc1nnc([C@H]2CCC[C@H](c3nnc(NC(=O)Cc4csc(N5CCOCC5)n4)s3)C2)s1 [Compound 276, N,N′-(5,5′-((1S,3S)-cyclohexane-1,3-diyl)bis(1,3,4-thiadiazole-5,2-diyl))bis(2-(2-morpholinothiazol-4-yl)acetamide)]
100 to 500 nM	CN(C)c1nc(CC(=O)Nc2nnc([C@H]3CCC[C@H](c4nnc(NC(=O)Cc5csc(N(C)C)n5)s4)C3)s2)cs1 [Compound 278, N,N′-(5,5′-((1S,3S)-cyclohexane-1,3-diyl)bis(1,3,4-thiadiazole-5,2-diyl))bis(2-(2-(dimethylamino)thiazol-4-yl)acetamide)]
< 100 nM	COc1nc(CC(=O)Nc2nnc([C@H]3CCC[C@H](c4nnc(NC(=O)Cc5csc(OC)n5)s4)C3)s2)cs1 [Compound 279, N,N′-(5,5′-((1S,3S)-cyclohexane-1,3-diyl)bis(1,3,4-thiadiazole-5,2-diyl))bis(2-(2-methoxythiazol-4-yl)acetamide)]
< 100 nM	COCCOc1ccc(CC(=O)Nc2nnc([C@H]3CCC[C@H](c4nnc(NC(=O)Cc5cccc(N6CC(F)(F)C6)n5)s4)C3)s2)nc1 [Compound 280, 2-(6-(3,3-difluoroazetidin-1-yl)pyridin-2-yl)-N-(5-((1S,3S)-3-(5-(2-(5-(2-methoxyethoxy)pyridin-2-yl)acetamido)-1,3,4-thiadiazol-2-yl)cyclohexyl)-1,3,4-thiadiazol-2-yl)acetamide]
< 100 nM	CC(=O)Nc1nnc([C@H]2CCC[C@H](c3nnc(NC(=O)Cc4cccc(N5CC(F)(F)C5)n4)s3)C2)s1 [Compound 281, N-(5-((1S,3S)-3-(5-acetamido-1,3,4-thiadiazol-2-yl)cyclohexyl)-1,3,4-thiadiazol-2-yl)-2-(6-(3,3-difluoroazetidin-1-yl)pyridin-2-yl)acetamide]
< 100 nM	CCC(=O)Nc1nnc([C@H]2CCC[C@H](c3nnc(NC(=O)Cc4cccc(N5CC(F)(F)C5)n4)s3)C2)s1 [Compound 282, N-(5-((1S,3S)-3-(5-(2-(6-(3,3-difluoroazetidin-1-yl)pyridin-2-yl)acetamido)-1,3,4-thiadiazol-2-yl)cyclohexyl)-1,3,4-thiadiazol-2-yl)propionamide]
100 to 500 nM	O=C(Cc1cccc(N2CC(F)(F)C2)n1)Nc1nnc([C@H]2CCC[C@H](c3nnc(NC(=O)C4CC4)s3)C2)s1 [Compound 283]
< 100 nM	COc1ccccc1CC(=O)Nc1nnc([C@H]2CC[C@H](c3nnc(NC(=O)Cc4ccccc4OC)s3)C2)s1 [Compound 284, N,N′-(5,5′-((1S,3S)-cyclopentane-1,3-diyl)bis(1,3,4-thiadiazole-5,2-diyl))bis(2-(2-methoxyphenyl)acetamide)]
< 100 nM	CN(C)c1cccc(CC(=O)Nc2nnc([C@H]3CC[C@H](c4nnc(NC(=O)Cc5cccc(N(C)C)c5)s4)C3)s2)c1 [Compound 285, N,N′-(5,5′-((1S,3S)-cyclopentane-1,3-diyl)bis(1,3,4-thiadiazole-5,2-diyl))bis(2-(3-(dimethylamino)phenyl)acetamide)]
< 100 nM	COc1ccc(CC(=O)Nc2nnc([C@H]3CC[C@H](c4nnc(NC(=O)Cc5ccc(OC)nc5)s4)C3)s2)cn1 [Compound 286, N,N′-(5,5′-((1S,3S)-cyclopentane-1,3-diyl)bis(1,3,4-thiadiazole-5,2-diyl))bis(2-(6-methoxypyridin-3-yl)acetamide)]
< 100 nM	COc1ccnc(CC(=O)Nc2nnc([C@H]3CC[C@H](c4nnc(NC(=O)Cc5cc(OC)ccn5)s4)C3)s2)c1 [Compound 287]
< 100 nM	O=C(Cc1cccc(N2CC(F)(F)C2)n1)Nc1nnc([C@H]2CC[C@H](c3nnc(NC(=O)Cc4cccc(N5CC(F)(F)C5)n4)s3)C2)s1 [Compound 288, N,N′-(5,5′-((1S,3S)-cyclopentane-1,3-diyl)bis(1,3,4-thiadiazole-5,2-diyl))bis(2-(6-(3,3-difluoroazetidin-1-yl)pyridin-2-yl)acetamide)]
100 to 500 nM	CN(C)c1cccc(CC(=O)Nc2nnc([C@H]3CC[C@H](c4nnc(NC(=O)Cc5cccc(N(C)C)n5)s4)C3)s2)n1 [Compound 289, N,N′-(5,5′-((1S,3S)-cyclopentane-1,3-diyl)bis(1,3,4-thiadiazole-5,2-diyl))bis(2-(6-(dimethylamino)pyridin-2-yl)acetamide)]
< 100 nM	O=C(Cc1ccc(C2CCNCC2)cc1)Nc1nnc([C@H]2CCC[C@H](c3nnc(NC(=O)Cc4ccc(C5CCNCC5)cc4)s3)C2)s1 [Compound 290]
